The term IC50 denotes the point on the concentration scale where inhibition reaches its midpoint. A low value points to higher potency.

Data on 21 compounds can be found in ChEMBL document CHEMBL1149578, “Design, synthesis, and discovery of stilbene derivatives based on lithospermic acid B as potent protein tyrosine phosphatase 1B inhibitors” (Bioorg Med Chem Lett, 2007).

Activity calls are given as the source filed them. The rule behind the calls is not given here.

The first assay has as its target T1, Tyrosine-protein phosphatase non-receptor type 1 (Homo sapiens, UniProt P18031).
T1 sequence (P18031 whole entry): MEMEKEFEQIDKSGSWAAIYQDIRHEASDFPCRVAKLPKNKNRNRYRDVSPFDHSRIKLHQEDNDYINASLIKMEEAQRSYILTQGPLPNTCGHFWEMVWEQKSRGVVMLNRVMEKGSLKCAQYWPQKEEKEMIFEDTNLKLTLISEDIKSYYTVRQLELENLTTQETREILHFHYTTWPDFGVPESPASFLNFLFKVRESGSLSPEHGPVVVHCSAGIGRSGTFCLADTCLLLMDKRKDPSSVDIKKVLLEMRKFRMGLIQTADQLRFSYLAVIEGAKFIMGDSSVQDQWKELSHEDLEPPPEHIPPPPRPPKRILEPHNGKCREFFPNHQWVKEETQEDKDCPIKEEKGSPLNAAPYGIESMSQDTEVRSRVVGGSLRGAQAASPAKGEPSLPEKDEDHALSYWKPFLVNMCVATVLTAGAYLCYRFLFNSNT
In words: (§1) Inhibition of PTP1B by colorimetric assay.
`O=[N+]([O-])c1ccc(/C=C/c2ccc(O)c(O)c2)c([N+](=O)[O-])c1`: half-maximal inhibition (IC50) required 190 µM. `COC(=O)/C=C/c1ccc(/C=C/c2ccc(O)c(O)c2)cc1` came in with an IC50 of 14.9 µM. As to `OCc1ccc(/C=C\c2ccc(O)c(O)c2)cc1`, the IC50 was found to be 138 µM. On the same count and under the same terms, the same measure for `O=Cc1ccc(/C=C/c2ccc(O)c(O)c2)cc1`: 101 µM; for `CCCCCCCCCCCCCCCC(=O)C1=C(O)[C@@H](CO)OC1=O`: 45 µM; for `O=C(Nc1ccccc1)c1ccc(/C=C/c2ccc(O)c(O)c2)cc1`: 27.2 µM. Turning to `O=[N+]([O-])c1ccc(/C=C/c2cccc(O)c2O)c([N+](=O)[O-])c1`, the IC50 amounted to 168 µM. Consider `O=C(NCC1CCCO1)c1ccc(/C=C/c2ccc(O)c(O)c2)cc1` (stereo unspecified), for which the IC50 came to 35.4 µM.

`COC(=O)c1ccc(/C=C/c2ccc(O)c(O)c2)cc1` registered an IC50 of 25.6 µM. `OCc1ccc(/C=C/c2ccc(O)c(O)c2)cc1` yielded an IC50 of 260 µM. This IC50 lies about 10-fold higher than the previous one.

A further assay has as its target T2, Tyrosine-protein phosphatase non-receptor type 1 (Homo sapiens) (UniProt P18031).
T2 sequence (whole entry): T1 sequence (P18031 whole entry)
The description is as §1.
As for `O=C(O)/C=C/c1ccc(O)c(O)c1`, the outcome was inactive.

Consider `O=[N+]([O-])c1ccc(/C=C/c2cccc(O)c2)c([N+](=O)[O-])c1`, for which the result was inactive. For `COC(=O)/C=C/c1ccc(/C=C/c2ccc(OC)c(OC)c2)cc1`, the result was inactive.

Take `COC(=O)C=Cc1ccc(/C=C\c2ccc(O)c(O)c2)cc1`: the result was inactive.

As to `COc1cc(/C=C/C(=O)CC(=O)/C=C/c2ccc(O)c(OC)c2)ccc1O`, the outcome was inactive.

Consider `O=C(/C=C/c1ccc(O)c(O)c1)Nc1ccccc1`, for which the outcome was inactive. `CCN(CC)C(=O)/C=C/c1ccc(O)c(O)c1`: the outcome was inactive. On the same count and under the same terms, the same measure for `O=C(NCC1CCCO1)c1ccc(/C=C\c2ccc(O)c(O)c2)cc1` (stereo unspecified): “inactive”. Still for that read-out and setting: the same measure for `C(=C/c1ccccc1)/c1ccccc1`: “inactive”; for `COc1ccc(/C=C/c2ccc(O)cc2)cc1OC`: “inactive”. Take `COC(=O)c1ccc(/C=C/c2ccc(OC)c(OC)c2)cc1`: the result was inactive.
